Measurements: patent US20220387429A1, “USE OF IMIDAZOPYRIMIDINE OR IMIDAZOTRIAZINE COMPOUND FOR PREVENTION, ALLEVIATION, OR TREATMENT OF DEVELOPMENTAL DISABILITY” (SK BIOPHARMACEUTICALS CO., LTD., priority 2019, published 2022)

Assays:
[1] = test system: Fmr1 gene knockout mouse model; experiment: Audiogenic seizure test, anticonvulsant efficacy; assay type: in vivo; conditions: Fmr1 gene knockout mice, 2 mg/kg intraperitoneally twice a day for 6 weeks
Description: (§1) An Fmr1 gene knockout mouse model was used as an animal model of fragile X syndrome. This model lacks FMRP protein due to disruption of the Fmr1 gene. Typical phenotypes of this mouse model include audiogenic seizure, hyperlocomotor activity, cognitive deficit, concentration deficit disorder, and the like.
(§2) Male Fmr1 C57BL/6J knock-out mice derived from the early group imported from Jackson Laboratories were used in the experiments. The experimental animals were raised in a light-controlled environment (illuminated for 12 hours/nonilluminated for 12 hours) and maintained at a temperature of 21° C.±2° C. and a relative humidity of about 55%±5%. Food and water were ad libitum fed. An anticonvulsant efficacy experiment on audiogenic seizure, a contextual fear conditioning experiment, an open field test, and a marble burying test in the Fmr1 gene knockout mouse model was performed by Fragile X Syndrome Drug Validation Initiative (FRAXA-DVI). The mice were randomly divided into groups and the test was performed under illumination.
(§3) The test compound was dissolved in 10% DMSO (dimethylsulfoxide)+30% PEG 300 in DW (distilled water), and administered intraperitoneally at a dose of 2 mg/kg twice a day for 6 weeks. To a control group, vehicle (10% DMSO (dimethylsulfoxide)+30% PEG 300 in DW (distilled water)) was administered.
(§4) Ten mice per group were used.
(§5) After the vehicle or test compound was administered intraperitoneally at a dose of 2 mg/kg twice a day for 6 weeks, the mice were placed in a chamber and exposed to an alarm. The response of the mice during the test was evaluated numerically by the following criteria according to the intensity of seizure, and the survival rate was also observed.
(§6) 1: Wild running and jumping

Wild-type mice = experiment: Audiogenic seizure test in wild-type mice; assay type: in vivo, mouse; conditions: 2 mg/kg intraperitoneally twice a day for 6 weeks
Procedure: [The source words this procedure for another variant and reports this variant under the same test.] as §2, §3, §4, §5, §6

[2] = test system: Fmr1 gene knockout mouse model; experiment: Contextual fear conditioning experiment; assay type: in vivo; conditions: Fmr1 gene knockout mice; 2 mg/kg intraperitoneally twice a day for 6 weeks; versus vehicle-administered knockout group
Description: as §1, §2
The test compound was dissolved in 10% DMSO (dimethylsulfoxide)+30% PEG 300 in DW (distilled water), and administered intraperitoneally at a dose of 2 mg/kg twice a day for 6 weeks. […]
(§7) After data analysis by ANOVA, the effect was defined as significant when p<0.05. All results were expressed as mean±SEM.

[3] = test system: Fmr1 gene knockout mouse model; experiment: Open field test; assay type: in vivo; conditions: Fmr1 gene knockout mice; 2 mg/kg intraperitoneally twice a day for 6 weeks; versus wild-type mice, P value of 0.0001 or less
Description: as §1
Male Fmr1 C57BL/6J knock-out mice derived from the early group imported from Jackson Laboratories were used in the experiments. The experimental animals were raised in a light-controlled environment (illuminated for 12 hours/nonilluminated for 12 hours) and maintained at a temperature of 21° C.±2° C. and a relative humidity of about 55%±5%. Food and water were ad libitum fed. […]
After the vehicle or test compound was administered intraperitoneally at a dose of 2 mg/kg twice a day for 6 weeks, an open field test was performed to observe the efficacy behavior of mice who fearlessly stepped out to the center of the open field. […] The number of times the mouse crossed the center of the open field was measured by the breakage of the horizontal beam due to the mouse's movement. […]
as §7

[4] = test system: Fmr1 gene knockout mouse model; experiment: Marble burying test; assay type: in vivo; conditions: Fmr1 gene knockout mice; 2 mg/kg intraperitoneally twice a day for 6 weeks; versus vehicle-administered knockout group
Description: as §1
as §2, with “The mice were randomly divided into groups and the test was performed under illumination.” left out
After the vehicle or test compound was administered intraperitoneally at a dose of 2 mg/kg twice a day for 6 weeks, a hippocampal function-dependent marble burying test was performed. […] The mouse was placed and left for 30 minutes, then the number of marbles buried by the mouse was counted.
as §7

SMILES: Fc1ccc(-c2cnc3nc(COc4ccccn4)cn3c2)c(C(F)(F)F)c1 [test compound, 6-[4-fluoro-2-(trifluoromethyl)phenyl]-2-(2-pyridyloxymethyl)imidazo[1,2-a]pyrimidine]
- Seizures of 3 or more points ([1]; mice affected/mice in group): 5/10
- Wild running ([1]; mice affected/mice in group): 6/10
- Vulnerability to audiogenic seizure ([1]; proportion of wild running mice, vehicle group 90%, 2 mg/kg): 60%
- Survival rate ([1]; survivors/mice in group): 5/10
- Audiogenic seizure phenotype (Wild-type mice): no mice showed audiogenic seizure phenotype
- Seizures of 3 or more points (Wild-type mice; mice affected/mice in group): 0/10
- Wild running (Wild-type mice; mice affected/mice in group): 0/10
- Vulnerability to audiogenic seizure (Wild-type mice; proportion of wild running mice): 0%
- Survival rate (Wild-type mice; survivors/mice in group): 10/10
- Freezing behavior (contextual fear conditioning, FIG. 1) [2]: significantly increased freezing behavior compared to the vehicle-administered group
- Number of times the mouse crossed the center (open field, FIG. 2) [3]: significant increase in movement compared to the wild-type mice
- Number of marbles buried (FIG. 3) [4]: increased compared to that in the vehicle-administered group of Fmr1 gene knockout mice
